pEC50, pIC50: −log10 of the molar value. Read-outs that look alike come from different tables or passages of the source.
Experiments:
IRAK4 enzyme = IRAK4 enzyme (Homo sapiens (Human), UniProt Q9NWZ3); assay: IRAK4 Biochemical Assay (TR-FRET, STK1 KinEASE)
Summary of the method: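 TR-FRET endpoint (KinEASE STK1): phosphopeptide detected with cryptate antibody and tracer after EDTA quench, ratio 665/615 nm, normalized to no-inhibitor wells as % inhibition. Reaction: 0.75 nM IRAK4, […] peptide, 500 μM ATP, pH 7.0 HEPES, 120 min room temperature, after 15 min compound preincubation with enzyme.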

TNFα = assay: IRAK4 Monocyte TNFα Cell Based Assay; design: species or system human; settings: Homo sapiens, Monocyte, read-out: EC50 MONO TNF HTRF
Summary of the method: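 TNFα release quantified by HTRF (cryptate/XL665 antibody pair, overnight at RT) after 1 h compound pre-incubation (0.1% DMSO) and 4 h LPS challenge at 50 pg/ml, 37 °C, 5,000 monocytes per well. Signal ratio normalised between unstimulated (0%) and stimulated (100%) controls.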

[1] = human monocytes, second part of Table 2, compounds 33-343, unit inferred

Chain of IRAK4 enzyme (Q9NWZ3 whole entry): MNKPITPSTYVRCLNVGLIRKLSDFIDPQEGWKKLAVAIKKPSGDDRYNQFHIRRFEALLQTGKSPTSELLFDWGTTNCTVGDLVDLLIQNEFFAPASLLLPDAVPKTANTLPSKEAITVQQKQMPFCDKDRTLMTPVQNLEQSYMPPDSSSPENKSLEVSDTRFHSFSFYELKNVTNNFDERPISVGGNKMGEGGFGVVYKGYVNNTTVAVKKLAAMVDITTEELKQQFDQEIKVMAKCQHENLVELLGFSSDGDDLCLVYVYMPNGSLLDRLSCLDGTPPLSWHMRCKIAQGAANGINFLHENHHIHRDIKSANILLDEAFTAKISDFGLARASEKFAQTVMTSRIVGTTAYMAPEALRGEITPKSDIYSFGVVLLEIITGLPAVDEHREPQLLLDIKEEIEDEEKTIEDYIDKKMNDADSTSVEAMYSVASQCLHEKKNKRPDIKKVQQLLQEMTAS

Compound	pIC50 (IRAK4 enzyme)	pEC50 (TNFα; [1])	pEC50 (TNFα)
CC(=O)N1CCC(c2nnc(-c3cnc(-c4ccc5cc(C#N)cnn45)cc3NC(C)C)s2)CC1 [Example 128, 7-(5-(5-(1-acetylpiperidin-4-yl)-1,3,4-thiadiazol-2-yl)-4-(isopropylamino)pyridin-2-yl)pyrrolo[1,2-b]pyridazine-3-carbonitrile]	9.23	7.73	
CC(C)Nc1cc(-c2ccc3cc(C#N)cnn23)ncc1-c1nnc(N2CCNCC2)s1 [Example 130, 7-(4-(isopropylamino)-5-(5-(piperazin-1-yl)-1,3,4-thiadiazol-2-yl)pyridin-2-yl)pyrrolo[1,2-b]pyridazine-3-carbonitrile]	9.19	7.73	
CC(C)Nc1cc(-c2ccc3cc(C#N)cnn23)ncc1-c1nnc(N2CCOCC2)s1 [Example 131, 7-(4-(isopropylamino)-5-(5-morpholino-1,3,4-thiadiazol-2-yl)pyridin-2-yl)pyrrolo[1,2-b]pyridazine-3-carbonitrile]	9.28	7.84	
CC(C)Nc1cc(-c2ccc3cc(C#N)cnn23)ncc1-c1nnc(C2CCN(CC(F)F)CC2)s1 [Example 133, 7-(5-(5-(1-(2,2-difluoroethyl)piperidin-4-yl)-1,3,4-thiadiazol-2-yl)-4-(isopropylamino)pyridin-2-yl)pyrrolo[1,2-b]pyridazine-3-carbonitrile]	8.83	6.27	
CC(=O)N[C@@H]1[C@@H]2CC[C@H]1N(c1nnc(-c3cnc(-c4ccc5cc(C#N)cnn45)cc3NC(C)C)s1)C2 [Example 137, N-((1R,4R,7R)-2-(5-(6-(3-cyanopyrrolo[1,2-b]pyridazin-7-yl)-4-(isopropylamino)pyridin-3-yl)-1,3,4-thiadiazol-2-yl)-2-azabicyclo[2.2.1]heptan-7-yl)acetamide]	9.07	8.19	
CC(=O)N[C@@H]1C[C@@H]2CC[C@H]1N2c1nnc(-c2cnc(-c3ccc4cc(C#N)cnn34)cc2NC(C)C)s1 [Example 141, N-((1R,2R,4S)-7-(5-(6-(3-cyanopyrrolo[1,2-b]pyridazin-7-yl)-4-(isopropylamino)pyridin-3-yl)-1,3,4-thiadiazol-2-yl)-7-azabicyclo[2.2.1]heptan-2-yl)acetamide]	9.30		7.73
CC1(Nc2cc(-c3ccc4cc(C#N)cnn34)ncc2-c2nnc(N3C[C@H]4CC[C@@H](C3)O4)s2)COC1 [Example 145, 7-(5-(5-((1R,5S)-8-oxa-3-azabicyclo[3.2.1]octan-3-yl)-1,3,4-thiadiazol-2-yl)-4-((3-methyloxetan-3-yl)amino)pyridin-2-yl)pyrrolo[1,2-b]pyridazine-3-carbonitrile]	9.48	8.25	
CC(=O)N[C@@H]1CCN(c2nnc(-c3cnc(-c4ccc5cc(C#N)cnn45)cc3N[C@H](C)C#N)s2)CC1(F)F [Example 151, N-((R)-1-(5-(4-(((R)-1-cyanoethyl)amino)-6-(3-cyanopyrrolo[1,2-b]pyridazin-7-yl)pyridin-3-yl)-1,3,4-thiadiazol-2-yl)-3,3-difluoropiperidin-4-yl)acetamide]	8.99	8.30	
CC(=O)N[C@H]1CCN(c2nnc(-c3cnc(-c4ccc5cc(C#N)cnn45)cc3N[C@H](C)C#N)s2)CC1(F)F [Example 152, N-((S)-1-(5-(4-(((R)-1-cyanoethyl)amino)-6-(3-cyanopyrrolo[1,2-b]pyridazin-7-yl)pyridin-3-yl)-1,3,4-thiadiazol-2-yl)-3,3-difluoropiperidin-4-yl)acetamide]	9.24	7.97	
CC(C)Nc1cc(-c2ccc3cc(C#N)cnn23)ncc1-c1nnc(N2CC[C@H](O)C(F)(F)C2)s1 [Example 161, (S)-7-(5-(5-(3,3-difluoro-4-hydroxypiperidin-1-yl)-1,3,4-thiadiazol-2-yl)-4-(isopropylamino)pyridin-2-yl)pyrrolo[1,2-b]pyridazine-3-carbonitrile]	8.83	7.46	
CC(C)Nc1cc(-c2ccc3cc(C#N)cnn23)ncc1-c1nnc(N2CC[C@@H](O)C(F)(F)C2)s1 [Example 162, (R)-7-(5-(5-(3,3-difluoro-4-hydroxypiperidin-1-yl)-1,3,4-thiadiazol-2-yl)-4-(isopropylamino)pyridin-2-yl)pyrrolo[1,2-b]pyridazine-3-carbonitrile]	8.64	7.58	
CC(C)Nc1cc(-c2ccc3cc(C#N)cnn23)ncc1-c1nnc(N2CC3(CNC(=O)C3)C2)s1 [Example 163, 7-(4-(isopropylamino)-5-(5-(7-oxo-2,6-diazaspiro[3.4]octan-2-yl)-1,3,4-thiadiazol-2-yl)pyridin-2-yl)pyrrolo[1,2-b]pyridazine-3-carbonitrile]	9.27	7.82	
CC(C)Nc1cc(-c2ccc3cc(C#N)cnn23)ncc1-c1nnc(N2CCOC(F)(F)C2)s1 [Example 167, 7-(5-(5-(2,2-difluoromorpholino)-1,3,4-thiadiazol-2-yl)-4-(isopropylamino)pyridin-2-yl)pyrrolo[1,2-b]pyridazine-3-carbonitrile]	8.74	6.00	
CC(=O)N[C@@H]1CCN(c2nnc(-c3cnc(-c4ccc5cc(C#N)cnn45)cc3NC(C)C)s2)CC1(F)F [Example 168, (R)-N-(1-(5-(6-(3-cyanopyrrolo[1,2-b]pyridazin-7-yl)-4-(isopropylamino)pyridin-3-yl)-1,3,4-thiadiazol-2-yl)-3,3-difluoropiperidin-4-yl)acetamide]	9.19	8.08	
CC(=O)N[C@H]1CCN(c2nnc(-c3cnc(-c4ccc5cc(C#N)cnn45)cc3NC(C)C)s2)CC1(F)F [Example 169, (S)-N-(1-(5-(6-(3-cyanopyrrolo[1,2-b]pyridazin-7-yl)-4-(isopropylamino)pyridin-3-yl)-1,3,4-thiadiazol-2-yl)-3,3-difluoropiperidin-4-yl)acetamide]	9.03	6.66	
CC(=O)NC1CCC2(C1)CN(c1nnc(-c3cnc(-c4ccc5cc(C#N)cnn45)cc3NC(C)C)s1)C2 (centres unmarked) [Example 170, N-(2-(5-(6-(3-cyanopyrrolo[1,2-b]pyridazin-7-yl)-4-(isopropylamino)pyridin-3-yl)-1,3,4-thiadiazol-2-yl)-2-azaspiro[3.4]octan-6-yl)acetamide]	9.44	7.80	
N#Cc1cnn2c(-c3cc(NC4CCOCC4)c(-c4nnc(N5CC6CC(C5)O6)s4)cn3)ccc2c1 [Example 177, 7-(5-(5-(6-oxa-3-azabicyclo[3.1.1]heptan-3-yl)-1,3,4-thiadiazol-2-yl)-4-((tetrahydro-2H-pyran-4-yl)amino)pyridin-2-yl)pyrrolo[1,2-b]pyridazine-3-carbonitrile]	9.39		8.08
C[C@H](C#N)Nc1cc(-c2ccc3cc(C#N)cnn23)ncc1-c1nnc(N2CC3CC(C2)O3)s1 [Example 178, 7-(5-(5-(6-oxa-3-azabicyclo[3.1.1]heptan-3-yl)-1,3,4-thiadiazol-2-yl)-4-(((R)-1-cyanoethyl)amino)pyridin-2-yl)pyrrolo[1,2-b]pyridazine-3-carbonitrile]	9.35		8.31
CC(=O)N[C@@H]1CCN(c2nnc(-c3cnc(-c4ccc5cc(C#N)cnn45)cc3NC3COC3)s2)CC1(F)F [Example 183, (R)-N-(1-(5-(6-(3-cyanopyrrolo[1,2-b]pyridazin-7-yl)-4-(oxetan-3-ylamino)pyridin-3-yl)-1,3,4-thiadiazol-2-yl)-3,3-difluoropiperidin-4-yl)acetamide]	9.30	8.06	
